Our source for the HC50 values is patent publication US10160785B2, “Antimicrobial peptides and their use for the treatment of topical infections” (priority 2015, dated 2018).

Where a SMILES comes first, the peptide text is derived from it.

A short description of this data set: in vitro. Conditions: human. A digest of the protocol: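 Peptides at 2-200 μmol.l^−1 incubated 1 h at 37 °C with 5% v/v human erythrocyte suspension in physiological solution. Released haemoglobin in supernatant read at 540 nm against buffer (0%) and 0.2% Triton X100 (100%) lysis controls. LC50 is the peptide concentration lysing 50% of cells.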

The compound `CCCC[C@H](NC(=O)[C@H](CC(C)C)NC(=O)[C@H](CO)NC(=O)[C@H](CO)NC(=O)[C@H](CCCC)NC(=O)[C@@H](NC(=O)CN)[C@@H](C)CC)C(=O)N[C@@H](CCCCN)C(=O)N[C@@H](CCCCN)C(=O)N[C@@H](CC(C)C)C(=O)N[C@@H](CCCCN)C(=O)N[C@@H](CCCCN)C(=O)N[C@H](C(=O)N[C@H](C(=O)N[C@@H](C)C(=O)N[C@@H](CCCCN)C(N)=O)[C@@H](C)CC)[C@@H](C)CC` [V] (HELM PEPTIDE1{G.I.[Nle].S.S.L.[Nle].K.K.L.K.K.I.I.A.K.[am]}$$$$V2.0) displayed an HC50 at 1 h of 373 µM.
